# From patent publication US11565998B2, “Succinate prodrug, compositions containing the succinate prodrug and uses thereof” (ABLIVA AB, priority 2019, dated 2023)
# Assays:
# [1] = Solubility in aqueous formulations in comparison to other succinate prodrugs; format: physicochemical; details: thermodynamic from solid
# Protocol: Solubility of Compound 1 in aqueous formulations in comparison to other succinate prodrugs was assessed by dissolving solid material in aqueous formulations and measuring the quantity in solution by HPLC (−MS). […] In many cases the max solubility of other prodrugs was lower than 100 uM. See Table 21 for example solubility data in PBS pH7.4 for other succinate prodrugs.
# [2] = Stability in purified (HPLC grade) or non-purified (tap) water; format: physicochemical; details: room temperature, 6 days
# Protocol: A side-by-side experiment of the stability of Compound 1 in ‘purified’ HPLC grade water (Fisher Scientific) and ‘non-purified’ tap water was set up. In brief, 1 mg/mL solutions of Compound 1 were generated in ‘purified’ HPLC grade water (Fisher Scientific) and ‘non-purified’ tap water. These were incubated at room temperature for up to 10 days. Concentration and purity of Compound 1 was assessed over time by HPLC in comparison to a standard (AUC of 8.21 RT peak at 230 nm for calculated concentration and AUC of Compound 1 peak vs impurities for purity analysis). Data presented is the average of two samples.
# [3] = system: microsomes (Sekisui XenoTech); assay: Succinate release on incubation with microsomes (LCMS); format: in vitro ADME; details: for Compound 1 detected by LCMS: microsomes 0.5 mg/mL, NADPH, malonate
# Protocol: In brief, a stock of Compound 1 Batch 12 was prepared in 50/50 DMSO/MeCN (200 mM, ×200). This mixture was then diluted 1 in 10 into microsome buffer (20 mM, ×20) consisting of K2HPO4 (Sigma Aldrich, 13.9 g/L, anhydrous), KH2PO4 (Sigma Aldrich, 2.72 g/L, anhydrous), MgCl2.6H2O (Fisher, 1.02 g/L) and EDTA (Sigma Aldrich, 0.375 g/L) dissolved in HPLC grade water. A 200 mM malonic acid (Sigma Aldrich) stock was then prepared in microsome buffer (200 mM, ×20). A 20 mM NADPH stock was also prepared in microsome buffer (20 mM, ×10). A stock of microsomes (Sekisui XenoTech, 0.625 mg/ml) was prepared in a 7 ml vial. Samples were prepared for each timepoint (T=0, 5, 15, 60 mins) as follows: 80 μL microsome stock (0.5 mg/mL final concentration), 5 μL of Compound stock ([…]), 5 μL of malonate stock (10 mM final concentration). The T=0 sample was quenched by adding 100 μL MeOH. Reaction of all timepoints was then initiated with addition of 10 μL NADPH stock (2 mM final concentration). At each timepoint, the reaction was terminated by the addition of 100 μL MeOH. Samples were shaken for 1 min, placed on ice for 10 min, then centrifuged at 3000 rpm for 10 minutes. The supernatant was then analysed by LCMS.
# [4] = Carbonate instability (calcium and carbonate sources); format: physicochemical; details: for Percentage of Compound 1 remaining compared to T = 0: 1 mg/ml
# Protocol: Compound 1 Batch 14 (2-3 mg) was dissolved in HPLC grade water at room temperature (1 mg/ml) containing different sources of calcium and carbonate ions (two concentrations for each source, with the pH recorded) and samples were taken at different time intervals for HPLC analysis.
# Calcium and carbonate sources used in the form of inorganic salts: […]
# [5] = Carbonate concentration dependence; format: physicochemical; details: HPLC water, 1 mg/ml
# Protocol: Compound 1 Batch 14 (2-3 mg) was dissolved in HPLC grade water (1 mg/ml) containing different concentrations of calcium carbonate and samples were taken at different time intervals for HPLC analysis.
# [6] = Aqueous formulations of Compound 1 (water, PBS, saline), concentration by HPLC; format: physicochemical; details: thermodynamic from solid
compound,measurement,setting,value
"COC(=O)CCC(=O)SCCNC(C)=O [Compound 1, Methyl 3-[(2-acetylaminoethylthio)carbonyl]propionate]",solubility,"[1]; 0.9% saline, saline or isotonic",> 500 mg/mL
same,solubility,"[1]; aqueous buffer, PBS (pH 7.4)",190 mg/mL
same,solubility,"[1]; pH 7.4, aqueous buffer, PBS pH7.4",> 100 µM
same,solubility,[1]; water,> 350 mg/mL
same,degradation (loss in purity and assay),[2]; (non-purified) tap water,Significant degradation
same,degradation (loss in purity and assay),[2]; (purified) HPLC grade water,not observed
same,succinic acid release,[3]; incubated with microsomes,releases succinic acid over time
same,Compound 1 detected by LCMS,"[3]; batch 12, 0 min",0.934 mM
same,Compound 1 detected by LCMS,"[3]; batch 12, 5 min",0.688 mM
same,Compound 1 detected by LCMS,"[3]; batch 12, 15 min",0.388 mM
same,Compound 1 detected by LCMS,"[3]; batch 12, 60 min",0.080 mM
same,Percentage of Compound 1 remaining compared to T = 0,"[4]; (NH4)2CO3 (3.4 mM, pH 8.9), batch 14, day 0",100%
same,Percentage of Compound 1 remaining compared to T = 0,"[4]; (NH4)2CO3 (3.4 mM, pH 8.9), batch 14, day 3",99.6%
same,Percentage of Compound 1 remaining compared to T = 0,"[4]; (NH4)2CO3 (3.4 mM, pH 8.9), batch 14, day 17",85.5%
same,Percentage of Compound 1 remaining compared to T = 0,"[4]; (NH4)2CO3 (3.4 mM, pH 9.3), batch 14, day 0",100%
same,Percentage of Compound 1 remaining compared to T = 0,"[4]; (NH4)2CO3 (3.4 mM, pH 9.3), batch 14, day 3",98.9%
same,Percentage of Compound 1 remaining compared to T = 0,"[4]; (NH4)2CO3 (3.4 mM, pH 9.3), batch 14, day 17",57.5%
same,Percentage of Compound 1 remaining compared to T = 0,"[4]; Ca(NO3)2 (0.34 mM, pH 7.3), batch 14, day 0",100%
same,Percentage of Compound 1 remaining compared to T = 0,"[4]; Ca(NO3)2 (0.34 mM, pH 7.3), batch 14, day 3",101%
same,Percentage of Compound 1 remaining compared to T = 0,"[4]; Ca(NO3)2 (0.34 mM, pH 7.3), batch 14, day 17",97.5%
same,Percentage of Compound 1 remaining compared to T = 0,"[4]; Ca(NO3)2 (3.4 mM, pH 7.2), batch 14, day 0",100%
same,Percentage of Compound 1 remaining compared to T = 0,"[4]; Ca(NO3)2 (3.4 mM, pH 7.2), batch 14, day 3",100%
same,Percentage of Compound 1 remaining compared to T = 0,"[4]; Ca(NO3)2 (3.4 mM, pH 7.2), batch 14, day 17",97.1%
same,Percentage of Compound 1 remaining compared to T = 0,"[4]; CaCO3 (0.34 mM, pH 7.6), batch 14, day 0",100%
same,Percentage of Compound 1 remaining compared to T = 0,"[4]; CaCO3 (0.34 mM, pH 7.6), batch 14, day 3",93.8%
same,Percentage of Compound 1 remaining compared to T = 0,"[4]; CaCO3 (0.34 mM, pH 7.6), batch 14, day 17",50.4%
same,Percentage of Compound 1 remaining compared to T = 0,"[4]; CaCO3 (3.4 mM, pH 7.6), batch 14, day 0",100%
same,Percentage of Compound 1 remaining compared to T = 0,"[4]; CaCO3 (3.4 mM, pH 7.6), batch 14, day 3",93.6%
same,Percentage of Compound 1 remaining compared to T = 0,"[4]; CaCO3 (3.4 mM, pH 7.6), batch 14, day 17",49.5%
same,Percentage of Compound 1 remaining compared to T = 0,"[4]; CaCl2 (0.34 mM, pH 7.4), batch 14, day 0",100%
same,Percentage of Compound 1 remaining compared to T = 0,"[4]; CaCl2 (0.34 mM, pH 7.4), batch 14, day 3",98.4%
same,Percentage of Compound 1 remaining compared to T = 0,"[4]; CaCl2 (0.34 mM, pH 7.4), batch 14, day 17",95.1%
same,Percentage of Compound 1 remaining compared to T = 0,"[4]; CaCl2 (3.4 mM, pH 7.5), batch 14, day 0",100%
same,Percentage of Compound 1 remaining compared to T = 0,"[4]; CaCl2 (3.4 mM, pH 7.5), batch 14, day 3",101%
same,Percentage of Compound 1 remaining compared to T = 0,"[4]; CaCl2 (3.4 mM, pH 7.5), batch 14, day 17",96.7%
same,Percentage of Compound 1 remaining compared to T = 0,"[4]; HPLC water (control, pH 6.5), batch 14, day 0",100%
same,Percentage of Compound 1 remaining compared to T = 0,"[4]; HPLC water (control, pH 6.5), batch 14, day 3",94.3%
same,Percentage of Compound 1 remaining compared to T = 0,"[4]; HPLC water (control, pH 6.5), batch 14, day 17",91.4%
same,degradation in aqueous solution with carbonate ions,[4]; vs calcium chloride / nitrate and control,degrades more rapidly
same,Percentage of Compound 1 remaining compared to T = 0,"[5]; CaCO3 (0 mM), batch 14, day 0",100%
same,Percentage of Compound 1 remaining compared to T = 0,"[5]; CaCO3 (0 mM), batch 14, day 7",98.7%
same,Percentage of Compound 1 remaining compared to T = 0,"[5]; CaCO3 (0 mM), batch 14, day 14",98.6%
same,Percentage of Compound 1 remaining compared to T = 0,"[5]; CaCO3 (0.425 mM), batch 14, day 0",100%
same,Percentage of Compound 1 remaining compared to T = 0,"[5]; CaCO3 (0.425 mM), batch 14, day 7",98.1%
same,Percentage of Compound 1 remaining compared to T = 0,"[5]; CaCO3 (0.425 mM), batch 14, day 14",98.4%
same,Percentage of Compound 1 remaining compared to T = 0,"[5]; CaCO3 (0.85 mM), batch 14, day 0",100%
same,Percentage of Compound 1 remaining compared to T = 0,"[5]; CaCO3 (0.85 mM), batch 14, day 7",97.8%
same,Percentage of Compound 1 remaining compared to T = 0,"[5]; CaCO3 (0.85 mM), batch 14, day 14",97.1%
same,Percentage of Compound 1 remaining compared to T = 0,"[5]; CaCO3 (1.7 mM), batch 14, day 0",100%
same,Percentage of Compound 1 remaining compared to T = 0,"[5]; CaCO3 (1.7 mM), batch 14, day 7",93.8%
same,Percentage of Compound 1 remaining compared to T = 0,"[5]; CaCO3 (1.7 mM), batch 14, day 14",90.8%
same,Percentage of Compound 1 remaining compared to T = 0,"[5]; CaCO3 (3.4 mM), batch 14, day 0",100%
same,Percentage of Compound 1 remaining compared to T = 0,"[5]; CaCO3 (3.4 mM), batch 14, day 7",83.4%
same,Percentage of Compound 1 remaining compared to T = 0,"[5]; CaCO3 (3.4 mM), batch 14, day 14",71.4%
same,solubility,"[6]; aqueous buffer, pH 7.4, aqueous media tested, room temperature (20-25° C.), read-out: aqueous solubility",≥ 300 mg/mL
same,solubility,"[6]; water and aqueous systems, water, read-out: solubility",> 500 mg/mL
same,solubility,"[6]; water and aqueous systems, water, read-out: solubility (molar equivalent)",~2100 mM
